# Measured values from PubChem BioAssay AID1320 (NMMLSC, 2008).
# pEC50: −log10 of the molar value. Active and inactive are the calls of the source. The rule behind the calls is not given here.
# Biological target: Bcl-2-related protein A1 (Homo sapiens) (UniProt Q16548)
# Assay: inhibitors of Bim binding to Bfl-1, dose response, biochemical, multiplexed, bead-based flow cytometry (AID 1320); for percent span (inhibition): test concentration not given here
# Details: Bim peptide-Bfl-1 binding, fluorescence
# Sequence of Bcl-2-related protein A1 (Homo sapiens) (Q16548 whole entry, looked up): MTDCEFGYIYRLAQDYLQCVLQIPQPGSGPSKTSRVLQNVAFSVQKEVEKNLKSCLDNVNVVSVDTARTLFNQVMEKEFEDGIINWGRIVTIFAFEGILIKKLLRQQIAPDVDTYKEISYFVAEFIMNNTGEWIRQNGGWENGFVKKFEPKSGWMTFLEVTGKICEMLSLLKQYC
EC50,pEC50,SMILES
inactive,–,Clc1ccc2c(N/N=C/c3ccccc3Br)ccnc2c1
–,5.87,O=C(C1=NN(c2ccccc2)C2C(=O)N(c3ccccc3)C(=O)C12)c1ccccc1 (stereo not given)
–,5.35,O=[N+]([O-])c1ccc(N/N=C/c2ccc(O)c(O)c2O)c(S(=O)(=O)N2CCOCC2)c1

# Same assay, conditions: Bim peptide-Bfl-1 binding, fluorescence, active compounds read high
row,percent span (inhibition),SMILES
1,inactive,Cc1ccc(C(=O)C(C(=O)/C=C/c2ccccc2)=C2SCCCS2)cc1
2,inactive,CNC(=S)N/N=C/C1=CCC2CC1C2(C)C (stereo not given)
3,inactive,CC1Nc2ccccc2C(=O)N1NS(C)(=O)=O (stereo not given)
4,inactive,O=C(Cn1cncc1-c1ccc([N+](=O)[O-])cc1)Nc1ccccc1F
5,inactive,O=C(NCC1CCCO1)c1ccc2c(=O)n(-c3ccc(F)cc3)c(=S)[nH]c2c1 (stereo not given)
6,inactive,Cc1ccc(-n2c(CSc3nc(C)cc(C)n3)nnc2SCC(=O)NCc2ccco2)cc1
7,inactive,COc1ccc(COC(=O)NNC(=O)c2ccccc2Cl)cc1
8,inactive,CN(C)C(=O)N1CCC(C(=O)NC2CCCCCCC2)CC1
9,inactive,Cc1ccc(NC(=S)N2CCn3cccc3C2c2cccnc2)cc1 (stereo not given)
10,inactive,FC(F)(F)c1ccc2c(c1)C1C=CCC1C(c1ccncc1)N2 (stereo not given)
11,inactive,O=C(Cc1ccc(-c2ccccc2)cc1)NC1CCCC1
12,inactive,COc1ccc(-n2c(=O)c3ccccc3c3ccccc3c2=O)c(OC)c1
13,inactive,O=C(OCc1nc2ccccc2[nH]1)C12CC3CC(CC(C3)C1)C2
14,inactive,Oc1ccc(C=NCC2COc3ccccc3O2)cc1 (stereo not given)
15,inactive,CCCCCCc1cc2cc(C(=O)Nc3ccccc3)c(=O)oc2cc1O
16,inactive,CCn1cc(C=C2C(=O)c3ccccc3C2=O)c2ccccc21
17,inactive,Cc1cc(Cl)ccc1N=c1ssnc1Cl
18,inactive,O=C(O)/C=C/C(=O)NNC(=O)c1ccc(Br)cc1
19,inactive,COc1ccc(C(=S)N2CCCCCC2)cc1
20,inactive,Cc1cc(C)nc(SCc2cc(=O)c(OC(=O)c3cccc([N+](=O)[O-])c3)co2)n1
21,inactive,Clc1nssc1=Nc1ccccc1
22,inactive,c1ccc(-c2nc(N3CCCCCC3)c3ccccc3n2)nc1
23,inactive,Cc1ccc(NC2=C(Cl)C(=O)c3ccccc3C2=O)cc1
24,inactive,O=C(OCc1cnc(Cl)s1)c1cccc(Cl)c1Cl
25,inactive,CCOC(=O)C1CCCN(c2ncnc3c2cnn3-c2cccc(C)c2)C1 (stereo not given)

row,percent span (inhibition),SMILES
1,inactive,COc1ccc(NS(=O)(=O)c2cc(NC(=O)c3ccc(C)o3)ccc2N2CCCCC2)cc1
2,inactive,CCC(=O)NC(c1ccc(C)cc1)c1cc([N+](=O)[O-])c2cccnc2c1O (stereo not given)
3,inactive,COC(=O)c1cccc(-n2c(C)cc(C=O)c2C)c1
4,inactive,COC(=O)Cc1cc(=O)[nH]c(Nc2nc3ccccc3o2)n1
5,inactive,CCN(CC)c1ccc(NC(=O)COc2ccccc2C)cc1S(=O)(=O)Nc1ccccc1OC
6,inactive,COc1cc(NC(=O)c2ccc3c(c2)OCO3)ccc1NC(=O)c1ccco1
7,inactive,O=C(C[n+]1ccc(-c2nnc3n2CCC3)cc1)c1ccc(Cl)c(Cl)c1
8,inactive,CC(C(=O)Nc1ccc([N+](=O)[O-])cc1)N1CCN(C/C=C/c2ccccc2)CC1 (stereo not given)
9,inactive,Cc1ccc(C)c(N2CCN(C(=S)Nc3ccc4nc(N5CCN(C)CC5)cc(C)c4c3)CC2)c1
10,inactive,CCc1nn2cc(C(=O)c3cc(C)ccc3O)cnc2c1-c1ccc(F)cc1
11,inactive,BrC(=C\c1ccccc1)/C=N/N1CCN(c2ccccc2)CC1
12,inactive,COc1ccc(NC(=O)c2ccc(CN3CCN(c4ccccc4)CC3)cc2)cc1
13,inactive,Cc1ccc2cc(C)c(Sc3nnnn3-c3ccccc3)nc2c1
14,inactive,O=C1Nc2ccc([N+](=O)[O-])cc2OC1CCN1CCN(Cc2ccc3c(c2)OCO3)CC1 (stereo not given)
15,inactive,O=C1c2ccccc2C(=O)N1c1cccc2cccnc12
16,inactive,C/C(=N\NC(=O)Cn1nc(C)c([N+](=O)[O-])c1C)c1ccc(O)cc1
17,inactive,Cc1ccc(/C=C2\CCCC3=C2NC(=S)NC3c2ccc(C)cc2)cc1 (stereo not given)
18,inactive,Cc1ccc2nc3c(cc(C(N)=S)c(=N)n3CCCOC(C)C)c(=O)n2c1
19,inactive,CCOc1c(Cl)cc(CNc2ccc(N3CCCC3)cc2)cc1OC
20,inactive,COc1ccccc1N(C)S(=O)(=O)c1ccc(C(=O)OCC(N)=O)cc1
21,inactive,S=C(Nc1ccc(N2CCOCC2)cc1)Nc1ccc2nc(-c3ccco3)c(-c3ccco3)nc2c1
22,inactive,Cc1ccccc1-n1nc(SCC(=O)O)sc1=S
23,inactive,COCCN=c1scc(-c2ccco2)n1/N=C/c1ccc(O)c(O)c1O
24,inactive,CCOC(=O)c1ccc(NC(=O)CSCCC(=O)O)cc1
25,inactive,Cc1cccc(Nc2nc(-c3ccncc3)cs2)c1

row,percent span (inhibition),SMILES
1,inactive,O=C(Nc1cccc(-c2ccc3nncn3n2)c1)c1ccco1
2,inactive,COc1cccc2c(SCC(=O)N/N=C/c3ccc(O)cc3O)cc(C)nc12
3,inactive,COc1cccc2c(SCC(=O)N/N=C/c3ccccc3)cc(C)nc12
4,inactive,C=CCn1c(SCC(=O)Nc2ccc3c(c2)OCO3)nnc1-c1cc(Br)ccc1O
5,inactive,O=C(Nc1cccc(Cl)c1)Nc1ccc(Cl)cn1
6,inactive,Cc1cnnn1-c1ccc(C(=O)CCl)cc1
7,inactive,C1=CC2c3ccccc3NC(c3ccncc3)C2C1 (stereo not given)
8,inactive,CCCCC(=O)Nc1ccc(C(=O)N2CCC(C(=O)OCC)CC2)cc1
9,inactive,c1cncc(-c2nnc3n2N=C(c2cccs2)CS3)c1
10,inactive,OCCC1CN(Cc2ccc3ncccc3c2)CCN1Cc1ccccc1 (stereo not given)
11,inactive,Cc1cc[n+]2cc(-c3cccc([N+](=O)[O-])c3)c(-c3cccc([N+](=O)[O-])c3)cc2c1
12,inactive,O=[N+]([O-])c1ccc2[nH]nc(-c3ccccc3)c2c1
13,inactive,CC(C)CNC(=O)c1cccc(NC(=O)c2ccc(Cl)c([N+](=O)[O-])c2)c1
14,inactive,Cc1cc2nc(/C(C#N)=C/c3ccncc3)[nH]c2cc1C
15,inactive,CNCc1ccccc1Sc1cc(O)ccc1O
16,inactive,COc1ccc(-c2nnc(SCC(=O)Nc3nc4ccccc4s3)n2C)cc1
17,inactive,O=C(C[n+]1ccc(-c2nnc3n2CCC3)cc1)c1ccc(Cl)cc1
18,inactive,CCSc1nnc(NC(=O)c2c(-c3ccccc3Cl)noc2C)s1
19,inactive,Cc1nnc(NCc2n[nH]c(=O)c3ccccc23)c2ccccc12
20,inactive,COCCNC(=O)CN1CCC(NC(=O)Nc2ccccc2)CC1
21,inactive,COc1ccc(C(=O)NC(=S)N2CCNC(=O)C2)cc1Br
22,inactive,O=C(Cn1c(-c2ccccc2)noc1=O)N1CCC(Cc2ccccc2)CC1
23,inactive,CCN1CCN(c2ccc(NC(=O)c3cccc4ncccc34)cc2)CC1
24,inactive,CCOc1ccc(C(=O)Nc2nnc(NC(=S)Nc3ccccc3)s2)cc1
25,inactive,C(=C\c1ccccc1)/CSc1nnc(-c2ccccn2)n1Cc1ccco1

row,percent span (inhibition),SMILES
1,inactive,O=C(COc1ccccc1Br)NCc1ccccn1
2,inactive,Cc1cc(NC(=O)CCCC(=O)N(CC(=O)NC2CCCCC2)c2ccccc2)no1
3,inactive,COc1ccc(C(=O)Nc2ccc(C(=O)OCC(=O)c3cccc4ccccc34)cc2)cc1
4,inactive,Cn1c(=O)c(C(=O)COC(=O)c2cc(-c3ccco3)nc3ccccc23)c(N)n(CC2CC2)c1=O
5,inactive,C/C(=N\NC(=O)Cc1cccn1C)c1ccc2ccccc2c1
6,inactive,O=C1C=C(Nc2ccccc2)C(=O)c2ccccc21
7,inactive,O=C(c1cc(=O)c2ccccc2o1)N1CCN(c2ccccc2F)CC1
8,inactive,O=C(Oc1ccc(-c2cnc3ccccc3n2)cc1)c1cccc([N+](=O)[O-])c1
9,inactive,Cc1cccc(NC(=S)N2CCn3cccc3C2c2cccnc2)c1 (stereo not given)
10,inactive,CCOc1ccc(NCc2ccccc2OCc2cccc(F)c2)cc1
11,inactive,CCN(CC)c1ccc(NC(=O)c2ccc(=O)[nH]c2)cc1S(=O)(=O)Nc1ccccc1OC
12,inactive,CC(C)(C)OC(=O)N1CCN(C(=O)[C@H](Cc2ccc(O)cc2)n2cc(CCO)nn2)CC1
13,inactive,O=C(c1cnccn1)N1CCN(c2ccccc2F)CC1
14,inactive,CCN(CC)c1ccc(NC(=O)c2cccc(C)c2)cc1S(=O)(=O)Nc1ccccc1OC
15,inactive,Cc1ccc(-c2ccc(CCC(=O)O)n2NC(=O)c2cccs2)cc1
16,inactive,CCCCOC(=O)c1nc(Cl)c(Cl)c(N)c1Cl
17,inactive,Cc1noc(C)c1COc1ccc(C(=O)Nc2cccnc2)cc1
18,inactive,Cc1ccc(N=C2NC(=O)/C(=C/C=C/c3ccco3)S2)cc1
19,inactive,CCOCCOc1nc2c(c(=O)n(C)c(=O)n2C)n1CCc1ccccc1
20,inactive,COc1cc2[nH]c(=S)nc(NCCc3ccc(S(N)(=O)=O)cc3)c2cc1OC
21,inactive,C=CCSc1nc(N)c2c(C)c(C)sc2n1
22,inactive,CC(C)(C)C1CCC(=NNC(=O)c2cc3c(s2)CCCC3)CC1 (stereo not given)
